{"source": "the kinase profiling compilation of Christmann-Franck et al. (2016)", "assay_in_all_cases": "KINOMEscan competition binding", "key": {"ULK1 (human)": {"target": "ULK1 (human) (UniProt O75385)", "conditions": "compound 1.0 µM"}, "[1]": {"tested_on": "EIF2AK4 KD2 (human), Q9P2K8 [S808G]", "conditions": "compound 1.0 µM"}, "EPHB3 (human)": {"target": "EPHB3 (human) (UniProt P54753)", "conditions": "compound 1.0 µM"}, "PIM2 (human)": {"target": "PIM2 (human) (UniProt Q9P1W9)", "conditions": "compound 1.0 µM"}, "DDR2 (human)": {"target": "DDR2 (human) (UniProt Q16832)", "conditions": "compound 1.0 µM"}, "CDK18 (human)": {"target": "CDK18 (human) (UniProt Q07002)", "conditions": "compound 1.0 µM"}, "ACVR2B (human)": {"target": "ACVR2B (human) (UniProt Q13705)", "conditions": "compound 1.0 µM"}, "BRSK1 (human)": {"target": "BRSK1 (human) (UniProt Q8TDC3)", "conditions": "compound 1.0 µM"}, "TNK2 (human)": {"target": "TNK2 (human) (UniProt Q07912)", "conditions": "compound 1.0 µM"}, "MYLK2 (human)": {"target": "MYLK2 (human) (UniProt Q9H1R3)", "conditions": "compound 1.0 µM"}, "MATK (human)": {"target": "MATK (human) (UniProt P42679)", "conditions": "compound 1.0 µM"}, "[2]": {"tested_on": "EGFR (human), P00533 [752-759 del]", "conditions": "compound 1.0 µM"}, "OXSR1 (human)": {"target": "OXSR1 (human) (UniProt O95747)", "conditions": "compound 1.0 µM"}, "CIT (human)": {"target": "CIT (human) (UniProt O14578)", "conditions": "compound 1.0 µM"}, "TLK2 (human)": {"target": "TLK2 (human) (UniProt Q86UE8)", "conditions": "compound 1.0 µM"}, "DYRK1B (human)": {"target": "DYRK1B (human) (UniProt Q9Y463)", "sequence (Q9Y463 whole entry, looked up)": "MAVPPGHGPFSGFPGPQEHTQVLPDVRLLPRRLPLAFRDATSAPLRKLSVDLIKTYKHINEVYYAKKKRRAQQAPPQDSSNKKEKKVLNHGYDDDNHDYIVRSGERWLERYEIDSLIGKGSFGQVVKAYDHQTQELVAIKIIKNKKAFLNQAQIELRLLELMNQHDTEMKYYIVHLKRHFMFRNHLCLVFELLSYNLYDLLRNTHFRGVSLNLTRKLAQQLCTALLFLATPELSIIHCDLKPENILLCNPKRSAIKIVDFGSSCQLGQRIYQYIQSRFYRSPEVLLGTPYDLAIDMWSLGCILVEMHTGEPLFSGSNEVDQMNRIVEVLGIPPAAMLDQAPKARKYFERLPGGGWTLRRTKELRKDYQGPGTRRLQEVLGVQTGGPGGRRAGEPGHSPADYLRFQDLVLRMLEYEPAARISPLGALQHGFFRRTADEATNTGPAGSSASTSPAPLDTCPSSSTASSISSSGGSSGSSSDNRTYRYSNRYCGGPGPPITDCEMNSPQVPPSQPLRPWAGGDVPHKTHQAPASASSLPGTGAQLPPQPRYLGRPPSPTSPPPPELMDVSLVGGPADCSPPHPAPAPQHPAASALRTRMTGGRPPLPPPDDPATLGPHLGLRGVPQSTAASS", "conditions": "compound 1.0 µM"}, "FGFR1 (human)": {"target": "FGFR1 (human) (UniProt P11362)", "conditions": "compound 1.0 µM"}, "NUAK2 (human)": {"target": "NUAK2 (human) (UniProt Q9H093)", "conditions": "compound 1.0 µM"}, "ALK (human)": {"target": "ALK (human) (UniProt Q9UM73)", "conditions": "compound 1.0 µM"}, "MAP2K5 (human)": {"target": "MAP2K5 (human) (UniProt Q13163)", "conditions": "compound 1.0 µM"}, "CDKL5 (human)": {"target": "CDKL5 (human) (UniProt O76039)", "sequence (O76039 whole entry, looked up)": "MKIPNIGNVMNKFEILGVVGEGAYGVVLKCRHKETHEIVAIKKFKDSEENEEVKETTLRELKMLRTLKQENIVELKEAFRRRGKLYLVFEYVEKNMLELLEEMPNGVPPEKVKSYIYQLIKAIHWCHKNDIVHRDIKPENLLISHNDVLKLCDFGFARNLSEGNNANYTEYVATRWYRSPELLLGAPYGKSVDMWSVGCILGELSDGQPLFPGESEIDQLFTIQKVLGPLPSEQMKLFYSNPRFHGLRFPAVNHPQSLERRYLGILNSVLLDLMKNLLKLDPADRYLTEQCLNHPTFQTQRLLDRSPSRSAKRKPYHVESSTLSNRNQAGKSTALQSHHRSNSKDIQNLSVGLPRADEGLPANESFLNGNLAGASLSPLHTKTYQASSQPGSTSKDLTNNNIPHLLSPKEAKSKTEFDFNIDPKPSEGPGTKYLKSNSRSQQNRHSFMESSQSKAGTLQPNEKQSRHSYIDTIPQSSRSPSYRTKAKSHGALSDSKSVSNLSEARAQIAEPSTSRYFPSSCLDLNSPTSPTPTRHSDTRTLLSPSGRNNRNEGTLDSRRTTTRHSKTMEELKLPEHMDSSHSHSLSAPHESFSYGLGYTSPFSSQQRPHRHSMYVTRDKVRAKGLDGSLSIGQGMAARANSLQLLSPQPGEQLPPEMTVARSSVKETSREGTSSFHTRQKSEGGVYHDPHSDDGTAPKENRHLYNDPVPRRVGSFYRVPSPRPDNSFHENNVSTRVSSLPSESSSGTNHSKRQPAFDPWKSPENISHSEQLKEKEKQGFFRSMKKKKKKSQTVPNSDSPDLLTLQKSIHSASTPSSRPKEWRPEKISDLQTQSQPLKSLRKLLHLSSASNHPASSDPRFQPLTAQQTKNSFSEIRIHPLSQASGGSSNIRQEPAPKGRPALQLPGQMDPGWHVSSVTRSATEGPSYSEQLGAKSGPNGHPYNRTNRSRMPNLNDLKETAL"}, "CDK2 (human)": {"target": "CDK2 (human) (UniProt P24941)", "conditions": "compound 1.0 µM"}, "DCLK2 (human)": {"target": "DCLK2 (human) (UniProt Q8N568)", "conditions": "compound 1.0 µM"}, "LYN (human)": {"target": "LYN (human) (UniProt P07948)", "conditions": "compound 1.0 µM"}, "PIK3CG (human)": {"target": "PIK3CG (human) (UniProt P48736)", "sequence (P48736 whole entry, looked up)": "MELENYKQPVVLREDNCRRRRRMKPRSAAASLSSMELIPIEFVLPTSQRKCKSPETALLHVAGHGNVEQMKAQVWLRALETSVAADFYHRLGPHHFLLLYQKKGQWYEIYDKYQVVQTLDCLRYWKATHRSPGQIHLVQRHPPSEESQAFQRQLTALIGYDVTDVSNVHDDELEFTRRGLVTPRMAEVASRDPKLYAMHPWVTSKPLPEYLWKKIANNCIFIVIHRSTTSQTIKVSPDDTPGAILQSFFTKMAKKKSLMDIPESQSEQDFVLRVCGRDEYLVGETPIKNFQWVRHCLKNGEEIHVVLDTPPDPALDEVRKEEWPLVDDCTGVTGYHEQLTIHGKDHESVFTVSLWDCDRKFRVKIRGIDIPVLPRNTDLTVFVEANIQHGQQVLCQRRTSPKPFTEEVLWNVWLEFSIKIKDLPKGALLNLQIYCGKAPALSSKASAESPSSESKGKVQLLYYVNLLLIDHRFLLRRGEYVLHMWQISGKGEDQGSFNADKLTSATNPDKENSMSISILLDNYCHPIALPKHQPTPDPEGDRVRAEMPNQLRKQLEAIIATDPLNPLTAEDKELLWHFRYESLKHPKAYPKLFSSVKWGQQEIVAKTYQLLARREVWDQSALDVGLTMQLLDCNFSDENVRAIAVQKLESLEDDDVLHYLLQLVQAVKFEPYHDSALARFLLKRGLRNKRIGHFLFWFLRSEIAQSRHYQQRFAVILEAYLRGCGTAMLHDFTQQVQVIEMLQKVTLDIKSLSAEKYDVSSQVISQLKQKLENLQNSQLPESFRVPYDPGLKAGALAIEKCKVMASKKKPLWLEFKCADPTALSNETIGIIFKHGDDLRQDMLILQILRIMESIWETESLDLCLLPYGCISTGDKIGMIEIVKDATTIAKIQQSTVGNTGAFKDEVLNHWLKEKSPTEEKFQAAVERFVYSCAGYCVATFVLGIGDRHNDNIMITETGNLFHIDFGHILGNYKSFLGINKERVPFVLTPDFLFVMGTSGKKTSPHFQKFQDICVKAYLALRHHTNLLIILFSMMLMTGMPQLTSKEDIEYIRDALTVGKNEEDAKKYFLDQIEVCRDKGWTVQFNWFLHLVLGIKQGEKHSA", "conditions": "compound 1.0 µM"}, "LATS1 (human)": {"target": "LATS1 (human) (UniProt O95835)", "sequence (O95835 whole entry, looked up)": "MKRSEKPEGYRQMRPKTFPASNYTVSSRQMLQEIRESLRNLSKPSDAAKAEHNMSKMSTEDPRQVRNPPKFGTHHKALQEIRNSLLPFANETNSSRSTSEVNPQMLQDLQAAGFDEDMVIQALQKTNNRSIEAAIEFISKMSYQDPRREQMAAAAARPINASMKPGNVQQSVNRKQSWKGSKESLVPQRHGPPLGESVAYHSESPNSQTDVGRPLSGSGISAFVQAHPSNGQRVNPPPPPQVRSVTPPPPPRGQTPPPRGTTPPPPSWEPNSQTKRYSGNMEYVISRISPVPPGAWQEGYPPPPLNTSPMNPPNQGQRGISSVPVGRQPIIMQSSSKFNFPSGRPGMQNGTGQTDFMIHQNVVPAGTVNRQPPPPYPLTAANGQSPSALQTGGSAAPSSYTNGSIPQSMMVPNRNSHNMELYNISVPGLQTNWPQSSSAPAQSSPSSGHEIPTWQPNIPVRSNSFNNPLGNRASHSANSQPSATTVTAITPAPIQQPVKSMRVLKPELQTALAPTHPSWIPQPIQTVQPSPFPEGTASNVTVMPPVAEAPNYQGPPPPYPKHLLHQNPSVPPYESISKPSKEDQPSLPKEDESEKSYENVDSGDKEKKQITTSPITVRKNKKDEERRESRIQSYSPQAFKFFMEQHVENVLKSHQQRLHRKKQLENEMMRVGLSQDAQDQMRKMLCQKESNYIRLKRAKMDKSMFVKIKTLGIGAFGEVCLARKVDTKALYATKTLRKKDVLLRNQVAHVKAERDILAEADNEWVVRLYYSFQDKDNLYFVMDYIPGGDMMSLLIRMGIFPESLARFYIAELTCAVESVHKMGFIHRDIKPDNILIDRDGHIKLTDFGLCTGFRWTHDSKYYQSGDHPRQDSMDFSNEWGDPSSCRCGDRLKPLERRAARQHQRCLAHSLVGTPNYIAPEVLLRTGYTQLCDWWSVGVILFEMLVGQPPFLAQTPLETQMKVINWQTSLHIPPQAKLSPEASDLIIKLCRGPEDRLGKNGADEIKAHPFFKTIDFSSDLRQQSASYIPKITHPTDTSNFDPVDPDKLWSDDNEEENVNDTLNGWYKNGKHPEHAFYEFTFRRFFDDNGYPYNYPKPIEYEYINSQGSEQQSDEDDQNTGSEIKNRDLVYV", "conditions": "compound 1.0 µM"}, "BMP2K (human)": {"target": "BMP2K (human) (UniProt Q9NSY1)", "sequence (Q9NSY1 whole entry, looked up)": "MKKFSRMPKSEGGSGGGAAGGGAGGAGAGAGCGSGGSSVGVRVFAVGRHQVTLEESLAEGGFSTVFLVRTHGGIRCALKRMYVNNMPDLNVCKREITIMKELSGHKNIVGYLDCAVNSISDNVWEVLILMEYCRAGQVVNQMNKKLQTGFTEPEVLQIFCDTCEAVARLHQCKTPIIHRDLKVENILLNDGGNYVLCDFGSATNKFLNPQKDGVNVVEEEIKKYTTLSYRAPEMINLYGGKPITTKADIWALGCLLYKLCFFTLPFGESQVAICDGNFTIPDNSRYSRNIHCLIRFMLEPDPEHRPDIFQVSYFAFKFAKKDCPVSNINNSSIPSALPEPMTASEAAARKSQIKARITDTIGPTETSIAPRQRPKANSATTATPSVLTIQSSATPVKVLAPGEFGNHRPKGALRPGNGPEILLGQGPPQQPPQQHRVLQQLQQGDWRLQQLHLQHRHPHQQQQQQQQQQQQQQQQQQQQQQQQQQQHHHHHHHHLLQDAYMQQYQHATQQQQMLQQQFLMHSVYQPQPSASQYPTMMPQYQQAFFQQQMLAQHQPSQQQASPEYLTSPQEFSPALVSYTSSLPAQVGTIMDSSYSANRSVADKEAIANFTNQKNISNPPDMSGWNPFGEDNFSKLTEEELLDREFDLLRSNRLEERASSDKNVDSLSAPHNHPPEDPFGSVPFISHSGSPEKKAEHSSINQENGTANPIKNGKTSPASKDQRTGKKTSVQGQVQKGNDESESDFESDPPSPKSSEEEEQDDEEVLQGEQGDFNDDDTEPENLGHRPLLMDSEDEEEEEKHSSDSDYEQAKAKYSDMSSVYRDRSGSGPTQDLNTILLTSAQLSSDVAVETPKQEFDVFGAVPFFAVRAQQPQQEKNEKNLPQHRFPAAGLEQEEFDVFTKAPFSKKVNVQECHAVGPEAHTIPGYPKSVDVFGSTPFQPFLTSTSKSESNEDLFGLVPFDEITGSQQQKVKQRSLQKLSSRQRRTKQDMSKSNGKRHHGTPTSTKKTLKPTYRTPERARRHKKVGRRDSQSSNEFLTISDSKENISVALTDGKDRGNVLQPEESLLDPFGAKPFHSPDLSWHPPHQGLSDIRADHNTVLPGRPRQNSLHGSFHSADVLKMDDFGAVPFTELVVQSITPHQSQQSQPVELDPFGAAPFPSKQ"}, "[3]": {"tested_on": "PIK3CA (human), P42336 [H1047Y]", "conditions": "compound 1.0 µM"}, "NEK2 (human)": {"target": "NEK2 (human) (UniProt P51955)", "conditions": "compound 1.0 µM"}, "AKT2 (human)": {"target": "AKT2 (human) (UniProt P31751)", "conditions": "compound 1.0 µM"}, "[4]": {"target": "JAK2 JH1 catalytic (human) (UniProt O60674)", "conditions": "compound 1.0 µM"}, "MAPK11 (human)": {"target": "MAPK11 (human) (UniProt Q15759)", "conditions": "compound 1.0 µM"}, "STK36 (human)": {"target": "STK36 (human) (UniProt Q9NRP7)", "conditions": "compound 1.0 µM"}, "LIMK2 (human)": {"target": "LIMK2 (human) (UniProt P53671)", "conditions": "compound 1.0 µM"}, "AKT3 (human)": {"target": "AKT3 (human) (UniProt Q9Y243)", "conditions": "compound 1.0 µM"}, "MINK1 (human)": {"target": "MINK1 (human) (UniProt Q8N4C8)", "conditions": "compound 1.0 µM"}, "SBK1 (human)": {"target": "SBK1 (human) (UniProt Q52WX2)", "conditions": "compound 1.0 µM"}, "PLK1 (human)": {"target": "PLK1 (human) (UniProt P53350)", "conditions": "compound 1.0 µM"}, "SIK2 (human)": {"target": "SIK2 (human) (UniProt Q9H0K1)", "conditions": "compound 1.0 µM"}, "BTK (human)": {"target": "BTK (human) (UniProt Q06187)", "conditions": "compound 1.0 µM"}, "DYRK1A (human)": {"target": "DYRK1A (human) (UniProt Q13627)", "conditions": "compound 1.0 µM"}, "MAPK10 (human)": {"target": "MAPK10 (human) (UniProt P53779)", "conditions": "compound 1.0 µM"}}}
{"molecule": "CN(C)C/C=C/C(=O)Nc1cccc(C(=O)Nc2ccc(Nc3nccc(-c4cccnc4)n3)cc2)c1", "values": [{"measurement": "kinase still bound, per cent of control", "setting": "ULK1 (human)", "result": 100, "unit": "%"}, {"measurement": "kinase still bound, per cent of control", "setting": "[1]", "result": 80, "unit": "%"}, {"measurement": "kinase still bound, per cent of control", "setting": "EPHB3 (human)", "result": 96, "unit": "%"}, {"measurement": "kinase still bound, per cent of control", "setting": "PIM2 (human)", "result": 100, "unit": "%"}, {"measurement": "kinase still bound, per cent of control", "setting": "DDR2 (human)", "result": 53, "unit": "%"}, {"measurement": "kinase still bound, per cent of control", "setting": "CDK18 (human)", "result": 100, "unit": "%"}, {"measurement": "kinase still bound, per cent of control", "setting": "ACVR2B (human)", "result": 56, "unit": "%"}, {"measurement": "kinase still bound, per cent of control", "setting": "BRSK1 (human)", "result": 85, "unit": "%"}, {"measurement": "kinase still bound, per cent of control", "setting": "TNK2 (human)", "result": 100, "unit": "%"}, {"measurement": "kinase still bound, per cent of control", "setting": "MYLK2 (human)", "result": 35, "unit": "%"}, {"measurement": "kinase still bound, per cent of control", "setting": "MATK (human)", "result": 99, "unit": "%"}, {"measurement": "kinase still bound, per cent of control", "setting": "[2]", "result": 81, "unit": "%"}, {"measurement": "kinase still bound, per cent of control", "setting": "OXSR1 (human)", "result": 96, "unit": "%"}, {"measurement": "kinase still bound, per cent of control", "setting": "CIT (human)", "result": 28, "unit": "%"}, {"measurement": "kinase still bound, per cent of control", "setting": "TLK2 (human)", "result": 92, "unit": "%"}, {"measurement": "kinase still bound, per cent of control", "setting": "DYRK1B (human)", "result": 52, "unit": "%"}, {"measurement": "kinase still bound, per cent of control", "setting": "FGFR1 (human)", "result": 90, "unit": "%"}, {"measurement": "kinase still bound, per cent of control", "setting": "NUAK2 (human)", "result": 31, "unit": "%"}, {"measurement": "kinase still bound, per cent of control", "setting": "ALK (human)", "result": 100, "unit": "%"}, {"measurement": "kinase still bound, per cent of control", "setting": "MAP2K5 (human)", "result": 6.8, "unit": "%"}, {"measurement": "Kd", "setting": "CDKL5 (human)", "result": 34, "unit": "nM"}, {"measurement": "kinase still bound, per cent of control", "setting": "CDKL5 (human); compound 1.0 µM", "result": 1.7, "unit": "%"}, {"measurement": "kinase still bound, per cent of control", "setting": "CDK2 (human)", "result": 100, "unit": "%"}, {"measurement": "kinase still bound, per cent of control", "setting": "DCLK2 (human)", "result": 100, "unit": "%"}, {"measurement": "kinase still bound, per cent of control", "setting": "LYN (human)", "result": 86, "unit": "%"}, {"measurement": "kinase still bound, per cent of control", "setting": "PIK3CG (human)", "result": 21, "unit": "%"}, {"measurement": "kinase still bound, per cent of control", "setting": "LATS1 (human)", "result": 100, "unit": "%"}, {"measurement": "Kd", "setting": "BMP2K (human)", "result": 190, "unit": "nM"}, {"measurement": "kinase still bound, per cent of control", "setting": "BMP2K (human); compound 1.0 µM", "result": 3.8, "unit": "%"}, {"measurement": "kinase still bound, per cent of control", "setting": "[3]", "result": 100, "unit": "%"}, {"measurement": "kinase still bound, per cent of control", "setting": "NEK2 (human)", "result": 86, "unit": "%"}, {"measurement": "kinase still bound, per cent of control", "setting": "AKT2 (human)", "result": 96, "unit": "%"}, {"measurement": "kinase still bound, per cent of control", "setting": "[4]", "result": 50, "unit": "%"}, {"measurement": "kinase still bound, per cent of control", "setting": "MAPK11 (human)", "result": 95, "unit": "%"}, {"measurement": "kinase still bound, per cent of control", "setting": "STK36 (human)", "result": 30, "unit": "%"}, {"measurement": "kinase still bound, per cent of control", "setting": "LIMK2 (human)", "result": 82, "unit": "%"}, {"measurement": "kinase still bound, per cent of control", "setting": "AKT3 (human)", "result": 100, "unit": "%"}, {"measurement": "kinase still bound, per cent of control", "setting": "MINK1 (human)", "result": 37, "unit": "%"}, {"measurement": "kinase still bound, per cent of control", "setting": "SBK1 (human)", "result": 66, "unit": "%"}, {"measurement": "kinase still bound, per cent of control", "setting": "PLK1 (human)", "result": 100, "unit": "%"}, {"measurement": "kinase still bound, per cent of control", "setting": "SIK2 (human)", "result": 51, "unit": "%"}, {"measurement": "kinase still bound, per cent of control", "setting": "BTK (human)", "result": 76, "unit": "%"}, {"measurement": "kinase still bound, per cent of control", "setting": "DYRK1A (human)", "result": 37, "unit": "%"}, {"measurement": "kinase still bound, per cent of control", "setting": "MAPK10 (human)", "result": 0, "unit": "%"}]}
